One assay has as its target HDAC2 (Homo sapiens, UniProt Q92769). To be noted: both methods (SICFA and PISA10).
The next assay addresses T1, HDAC8 (Homo sapiens, UniProt Q9BY41).
T1 sequence (Q9BY41 1-377): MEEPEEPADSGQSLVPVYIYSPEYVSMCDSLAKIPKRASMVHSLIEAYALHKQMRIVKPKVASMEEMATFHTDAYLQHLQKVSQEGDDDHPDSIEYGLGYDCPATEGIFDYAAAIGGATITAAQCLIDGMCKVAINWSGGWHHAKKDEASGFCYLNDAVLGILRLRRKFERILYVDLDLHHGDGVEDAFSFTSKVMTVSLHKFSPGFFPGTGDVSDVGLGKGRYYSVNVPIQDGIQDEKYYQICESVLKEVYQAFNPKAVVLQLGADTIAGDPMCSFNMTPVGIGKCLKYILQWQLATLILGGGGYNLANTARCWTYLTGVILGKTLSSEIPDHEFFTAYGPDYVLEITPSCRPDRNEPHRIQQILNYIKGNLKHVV
Description: SICFA and PISA10 stability shift, Panobinostat. Conditions: SICFA versus PISA10.

Another assay deals with HDAC3 (Homo sapiens, UniProt O15379). Description: SICFA and PISA10 stability shift, Panobinostat. To be noted: SICFA versus PISA10.
Chain of HDAC3 (O15379 whole entry): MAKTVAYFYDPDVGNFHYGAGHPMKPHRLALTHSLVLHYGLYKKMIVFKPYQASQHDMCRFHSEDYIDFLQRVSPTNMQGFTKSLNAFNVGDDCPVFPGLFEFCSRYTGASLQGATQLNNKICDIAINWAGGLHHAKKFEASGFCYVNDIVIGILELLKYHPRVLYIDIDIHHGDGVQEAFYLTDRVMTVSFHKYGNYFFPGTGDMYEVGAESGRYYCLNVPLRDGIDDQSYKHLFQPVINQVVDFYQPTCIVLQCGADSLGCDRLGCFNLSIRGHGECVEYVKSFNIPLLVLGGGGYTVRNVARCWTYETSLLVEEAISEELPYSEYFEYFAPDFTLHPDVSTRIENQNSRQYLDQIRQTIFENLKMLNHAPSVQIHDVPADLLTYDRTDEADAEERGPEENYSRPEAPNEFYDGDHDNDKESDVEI
Chain of HDAC3 (Q9Y618 389-480 partner limits assumed): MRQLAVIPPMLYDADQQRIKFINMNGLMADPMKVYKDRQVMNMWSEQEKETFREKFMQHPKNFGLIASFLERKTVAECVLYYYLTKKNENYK
The next assay has as its target T2, HDAC6 (Homo sapiens, UniProt Q9UBN7).
T2 sequence (Q9UBN7 1-1215): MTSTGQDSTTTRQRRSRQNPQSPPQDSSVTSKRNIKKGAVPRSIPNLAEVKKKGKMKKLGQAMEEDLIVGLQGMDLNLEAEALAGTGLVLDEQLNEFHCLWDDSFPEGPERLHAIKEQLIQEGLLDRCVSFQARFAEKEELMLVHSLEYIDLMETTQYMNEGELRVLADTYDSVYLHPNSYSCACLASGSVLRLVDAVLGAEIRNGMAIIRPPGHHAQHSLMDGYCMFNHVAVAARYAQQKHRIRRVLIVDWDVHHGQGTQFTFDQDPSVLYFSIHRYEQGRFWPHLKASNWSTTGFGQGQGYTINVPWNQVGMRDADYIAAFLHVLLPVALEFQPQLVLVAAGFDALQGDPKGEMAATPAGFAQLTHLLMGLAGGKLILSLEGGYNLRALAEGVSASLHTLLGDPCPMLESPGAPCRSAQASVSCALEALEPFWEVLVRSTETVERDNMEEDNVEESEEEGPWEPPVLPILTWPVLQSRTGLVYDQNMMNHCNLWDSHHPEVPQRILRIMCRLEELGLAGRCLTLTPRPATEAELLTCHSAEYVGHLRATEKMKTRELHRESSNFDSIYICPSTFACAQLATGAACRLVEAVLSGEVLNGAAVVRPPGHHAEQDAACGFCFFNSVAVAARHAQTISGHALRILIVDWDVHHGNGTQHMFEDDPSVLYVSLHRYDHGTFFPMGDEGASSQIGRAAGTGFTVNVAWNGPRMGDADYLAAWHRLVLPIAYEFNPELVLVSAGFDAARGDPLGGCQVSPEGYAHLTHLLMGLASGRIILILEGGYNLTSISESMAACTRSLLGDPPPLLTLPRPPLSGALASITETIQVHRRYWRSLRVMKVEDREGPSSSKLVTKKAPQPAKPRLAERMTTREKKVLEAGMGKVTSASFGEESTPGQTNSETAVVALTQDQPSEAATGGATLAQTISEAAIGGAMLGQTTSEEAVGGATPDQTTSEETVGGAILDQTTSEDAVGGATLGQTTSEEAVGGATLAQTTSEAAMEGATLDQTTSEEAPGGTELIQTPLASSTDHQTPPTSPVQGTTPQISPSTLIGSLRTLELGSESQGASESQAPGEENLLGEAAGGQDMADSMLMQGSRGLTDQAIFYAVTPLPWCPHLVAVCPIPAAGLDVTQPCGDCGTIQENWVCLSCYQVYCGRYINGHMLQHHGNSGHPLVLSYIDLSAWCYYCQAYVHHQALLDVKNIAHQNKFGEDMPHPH
The experiment in a line: SICFA and PISA10 stability shift, Panobinostat. To be noted: both methods (SICFA and PISA10).

In another assay the test system is RB1. The experiment in a line: SICFA stability shift, SNS-032.
The target in assay [1] is T3, TYMS (Homo sapiens, UniProt P04818). To be noted: raltitrexed 1 µM, 30 min.
T3 sequence (P04818 2-313 limits assumed): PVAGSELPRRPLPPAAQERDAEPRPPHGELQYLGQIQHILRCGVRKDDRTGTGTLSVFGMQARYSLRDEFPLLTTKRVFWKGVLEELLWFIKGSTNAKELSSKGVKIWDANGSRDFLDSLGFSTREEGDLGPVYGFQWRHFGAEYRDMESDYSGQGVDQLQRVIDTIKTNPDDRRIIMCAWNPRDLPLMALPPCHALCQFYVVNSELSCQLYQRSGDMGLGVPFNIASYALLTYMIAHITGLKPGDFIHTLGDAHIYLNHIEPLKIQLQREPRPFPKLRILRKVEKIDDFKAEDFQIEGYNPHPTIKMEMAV
For assay [2], the system named is RNA post-transcriptional modification enzymes (PUS1, PUS3, PUS10, TRUB1, TRUB2, DUS3L, TRMT2A, EMG1). Description: Time-resolved SICFA, 5-FU in K562 cells. The assay is classed as cell-based, Human. Conditions: 50 µM 5-FU, from 4 h, further enhanced with prolonged treatment.
Assay [3] has as its target T3, TYMS. The experiment in a line: Time-resolved SICFA, 5-FU in K562 cells. To be noted: 50 µM 5-FU, 30 min, 10% fixative.
The test system of a further assay is tRNA modifications. Description: Measurement of tRNA modification levels by LC-MS/MS. Conditions: K562 cells, 50 μM 5-FU. The assay is classed as cell-based, Human.
The subject of assay [4] is Methionine synthase (MTR). Description: SICFA of MTX-treated living K562 cells. The assay is classed as cell-based, Human. Conditions: 2 µM MTX, 30 min.
Assay [5] has as its system C-1-tetrahydrofolate synthase (MTHFD1). The experiment in a line: SICFA of MTX-treated living K562 cells. It counts as cell-based, Human. Conditions: 2 µM MTX, 30 min.
The test system of the next assay is CDKN1C. The experiment in a line: SICFA target identification, dasatinib. The assay is classed as cell-based, Human. Conditions: dasatinib 1 μM, 30 min.
The next assay concerns YES1. To be noted: 1 µM dasatinib, cell lysate, kinobeads ref 26; cited from earlier work.
In a further assay the test system is LYN. To be noted: 1 µM dasatinib, cell lysate, kinobeads ref 26; cited from earlier work.
The test system of another assay is RIPK2. To be noted: 1 µM dasatinib, cell lysate, kinobeads ref 26; cited from earlier work.

Chain of HDAC2 (Q92769 whole entry): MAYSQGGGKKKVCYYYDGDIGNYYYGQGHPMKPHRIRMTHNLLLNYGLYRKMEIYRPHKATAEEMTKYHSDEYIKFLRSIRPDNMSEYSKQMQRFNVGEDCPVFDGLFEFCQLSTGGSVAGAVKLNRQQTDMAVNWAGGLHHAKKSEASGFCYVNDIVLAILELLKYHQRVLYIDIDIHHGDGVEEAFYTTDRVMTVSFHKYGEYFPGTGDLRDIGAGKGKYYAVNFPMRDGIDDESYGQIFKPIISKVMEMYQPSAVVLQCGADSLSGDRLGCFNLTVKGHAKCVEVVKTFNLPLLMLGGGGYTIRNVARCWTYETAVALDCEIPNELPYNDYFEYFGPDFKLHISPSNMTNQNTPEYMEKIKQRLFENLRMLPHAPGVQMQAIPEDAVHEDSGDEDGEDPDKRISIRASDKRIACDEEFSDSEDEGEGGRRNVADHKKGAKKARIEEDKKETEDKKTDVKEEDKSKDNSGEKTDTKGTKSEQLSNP

Take `Cc1[nH]c2ccccc2c1CCNCc1ccc(/C=C/C(=O)NO)cc1` [Panobinostat]: the HDAC2 stability entry on HDAC2 is “consistent stabilization”. Besides, on HDAC8, the HDAC8 target identification result was “uniquely identified by SICFA”. In addition, at HDAC3, the HDAC3 stability entry is “opposite trends”. On HDAC6, the HDAC6 stability result is “consistent stabilization”.
In the case of `CC(C)(C)c1cnc(CSc2cnc(NC(=O)C3CCNCC3)s2)o1` [SNS-032], the “stability shift of substrate RB1, log2FC” value in the assay on RB1 is listed as over 0.5.
For `Cc1nc2ccc(CN(C)c3ccc(C(=O)N[C@@H](CCC(=O)O)C(=O)O)s3)cc2c(=O)[nH]1` [raltitrexed, Raltitrexed], the “soluble TYMS content vs control (western blot)” value on TYMS [1] (Jurkat cells, 10% and 12% fixative) is “markedly higher”. The “target identification by SICFA LC-MS/MS” value at TYMS [1] (10% fixative, pool of 5,534 proteins) is given as “leading candidate target”.
In the case of `O=c1[nH]cc(F)c(=O)[nH]1` [5-FU, 5-Fluorouracil], the “stability of RNA post-transcriptional modification enzymes” value in [2] was “significantly increased”. Moreover, the “TYMS stability, log2FC” value on TYMS [3] is on record as 2.11. In addition, in the assay with tRNA modifications (4 h), the “changes in RNA (tRNA) modifications” value is on record as “no significant changes”. For the same compound, in the assay with tRNA modifications (24 h), the “tRNA modifications Ψ, ncm5U, hm5C, m5U” value was “significantly downregulated”.
Regarding `CN(Cc1cnc2nc(N)nc(N)c2n1)c1ccc(C(=O)N[C@@H](CCC(=O)O)C(=O)O)cc1` [MTX, Methotrexate], the “MTR stability, log2FC” value in assay [4] was −0.38. Also, the MTHFD1 stability entry in [5] is listed as “increased stability”.
In the case of `Cc1nc(Nc2ncc(C(=O)Nc3c(C)cccc3Cl)s2)cc(N2CCN(CCO)CC2)n1` [dasatinib, Dasatinib], the “stability of LYN's interacting partner CDKN1C” value in the assay with CDKN1C was “reduced the stability”. Also, the reduction in binding result in the assay on YES1, in the assay on LYN and with RIPK2 was “more than 50%” throughout.

The record behind these values is publication PMC12647918 (Nature Communications, 2025).
